Columns and labels:
[1] = target: T1, von Hippel-Lindau disease tumor suppressor/Interleukin-1 receptor-associated kinase 1 (Homo sapiens, UniProt P51617+P40337); assay: Protac activity at VHL/IRAK1 in HEK293T cells assessed as induction of IRAK1 degradation measured after 24 hrs by Western blot analysis; assay type: cell-based
Target sequence in this assay (P51617 whole entry): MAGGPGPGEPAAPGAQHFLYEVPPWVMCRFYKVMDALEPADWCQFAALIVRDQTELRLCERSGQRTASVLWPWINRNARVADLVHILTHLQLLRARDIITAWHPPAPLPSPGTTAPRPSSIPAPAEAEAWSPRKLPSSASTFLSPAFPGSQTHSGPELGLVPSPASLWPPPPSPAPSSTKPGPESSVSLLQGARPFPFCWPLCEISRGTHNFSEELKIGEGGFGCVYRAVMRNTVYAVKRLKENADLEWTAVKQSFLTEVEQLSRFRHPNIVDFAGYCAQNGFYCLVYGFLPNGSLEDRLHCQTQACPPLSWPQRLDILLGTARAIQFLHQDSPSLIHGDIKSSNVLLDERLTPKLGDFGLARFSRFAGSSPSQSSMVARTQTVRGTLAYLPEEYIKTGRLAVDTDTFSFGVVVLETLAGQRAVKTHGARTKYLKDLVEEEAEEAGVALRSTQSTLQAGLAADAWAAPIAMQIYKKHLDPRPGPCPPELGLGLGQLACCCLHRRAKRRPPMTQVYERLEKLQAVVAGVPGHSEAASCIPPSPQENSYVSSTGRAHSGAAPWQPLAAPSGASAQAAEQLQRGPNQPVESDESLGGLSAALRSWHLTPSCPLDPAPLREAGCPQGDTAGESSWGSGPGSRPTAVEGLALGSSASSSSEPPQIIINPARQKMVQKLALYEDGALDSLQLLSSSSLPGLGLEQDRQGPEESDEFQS
Target sequence in this assay (P40337 whole entry): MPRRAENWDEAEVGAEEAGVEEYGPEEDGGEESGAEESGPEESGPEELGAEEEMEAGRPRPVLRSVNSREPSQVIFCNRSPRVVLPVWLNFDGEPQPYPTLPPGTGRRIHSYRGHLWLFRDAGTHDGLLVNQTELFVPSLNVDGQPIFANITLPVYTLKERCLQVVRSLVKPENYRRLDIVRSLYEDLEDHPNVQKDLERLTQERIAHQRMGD

[2] = target: T1, von Hippel-Lindau disease tumor suppressor/Interleukin-1 receptor-associated kinase 1; assay: Protac activity at VHL/IRAK1 in HEK293T cells assessed as induction of IRAK1 degradation at 10 uM measured after 24 hrs by Western blot analysis relative to control; assay type: cell-based
Target sequence in this assay (P40337 whole entry, looked up): as the sequence (P40337 whole entry) above
Target sequence in this assay (P51617 whole entry, looked up): as the sequence (P51617 whole entry) above

Structure (SMILES)	DC50 [1]	Emax [2]
COc1cc(N2CCN(C(=O)OCC(=O)N[C@H](C(=O)N3C[C@H](O)C[C@H]3C(=O)NCc3ccc(-c4scnc4C)cc3)C(C)(C)C)CC2)ccc1NC(=O)c1cccc(-c2ccn[nH]2)n1	16 nM	97%
COc1cc(N2CC[C@@H](OCC(=O)N[C@H](C(=O)N3C[C@H](O)C[C@H]3C(=O)N[C@@H](C)c3ccc(-c4scnc4C)cc3)C(C)(C)C)C[C@@H]2C)ccc1NC(=O)c1cccc(-c2ccn[nH]2)n1	13 nM	94%
COc1cc(N2CCN(C(=O)OCC(=O)N[C@H](C(=O)N3C[C@H](O)C[C@H]3C(=O)N[C@@H](C)c3ccc(-c4scnc4C)cc3)C(C)(C)C)CC2)ccc1NC(=O)c1cccc(-c2ccn[nH]2)n1	9 nM	90%
COc1cc(N2CCC(OCC(=O)N[C@H](C(=O)N3C[C@H](O)C[C@H]3C(=O)NCc3ccc(-c4scnc4C)cc3F)C(C)(C)C)CC2)ccc1NC(=O)c1cccc(-c2ccn[nH]2)n1	13 nM	96%
COc1cc(N2CCC(OCC(=O)N[C@H](C(=O)N3C[C@H](O)C[C@H]3C(=O)NCc3ccc(-c4scnc4C)cc3)C(C)(C)C)CC2)ccc1NC(=O)c1cccc(-c2ccn[nH]2)n1	16 nM	95%
COc1cc(N2CCC(OCC(=O)N[C@H](C(=O)N3C[C@H](O)C[C@H]3C(=O)N[C@@H](C)c3ccc(-c4scnc4C)cc3)C(C)(C)C)CC2)ccc1NC(=O)c1cccc(-c2ccn[nH]2)n1	3 nM	96%
COc1cc(N2CC[C@H](OCC(=O)N[C@H](C(=O)N3C[C@H](O)C[C@H]3C(=O)N[C@@H](C)c3ccc(-c4scnc4C)cc3)C(C)(C)C)[C@@H](C)C2)ccc1NC(=O)c1cccc(-c2ccn[nH]2)n1		95%
COc1cc(N2CC[C@@H](OCC(=O)N[C@H](C(=O)N3C[C@H](O)C[C@H]3C(=O)N[C@@H](C)c3ccc(-c4scnc4C)cc3)C(C)(C)C)[C@H](C)C2)ccc1NC(=O)c1cccc(-c2ccn[nH]2)n1	21 nM	96%
